The results in this text go back to patent US20050165029A1, “Pyrrolopyrimidine derivatives and analogs and their use in the treatment and prevention of diseases” (Ambit Biosciences Corporation, priority 2004, published 2005).

Structures are written as SMILES. Bounds are passed on as bounds.

One assay has as its target T1, FLT3 (Homo sapiens, UniProt P36888).
T1 construct: made in house; host or cells: T7 bacteriophage display
T1 sequence (P36888 27-993): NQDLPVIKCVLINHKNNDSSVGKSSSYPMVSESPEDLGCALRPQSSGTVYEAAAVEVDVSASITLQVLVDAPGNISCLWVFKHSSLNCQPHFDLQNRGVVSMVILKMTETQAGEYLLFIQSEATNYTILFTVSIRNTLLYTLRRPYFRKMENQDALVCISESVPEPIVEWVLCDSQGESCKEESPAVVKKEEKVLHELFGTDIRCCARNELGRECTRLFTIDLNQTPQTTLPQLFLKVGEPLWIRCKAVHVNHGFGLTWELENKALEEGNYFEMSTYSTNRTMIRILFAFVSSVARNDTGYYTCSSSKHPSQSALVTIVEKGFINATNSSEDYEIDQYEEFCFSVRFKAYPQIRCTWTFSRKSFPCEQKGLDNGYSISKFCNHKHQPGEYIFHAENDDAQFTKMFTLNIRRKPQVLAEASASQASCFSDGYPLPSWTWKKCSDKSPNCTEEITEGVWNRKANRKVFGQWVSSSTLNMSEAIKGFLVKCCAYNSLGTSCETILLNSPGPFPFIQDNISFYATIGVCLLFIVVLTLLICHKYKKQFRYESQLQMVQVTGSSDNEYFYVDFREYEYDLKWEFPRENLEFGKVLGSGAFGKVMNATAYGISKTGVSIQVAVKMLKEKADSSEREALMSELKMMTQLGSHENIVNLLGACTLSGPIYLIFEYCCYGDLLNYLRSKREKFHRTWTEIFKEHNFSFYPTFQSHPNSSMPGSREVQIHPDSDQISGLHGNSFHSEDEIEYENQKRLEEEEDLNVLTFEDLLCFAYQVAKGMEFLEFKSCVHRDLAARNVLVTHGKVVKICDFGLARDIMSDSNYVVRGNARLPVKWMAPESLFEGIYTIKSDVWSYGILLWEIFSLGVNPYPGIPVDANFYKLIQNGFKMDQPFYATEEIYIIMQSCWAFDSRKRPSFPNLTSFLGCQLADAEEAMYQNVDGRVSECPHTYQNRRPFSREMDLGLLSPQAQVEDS
As to the kind of experiment: FLT3(DKIN) phage-display competitive binding assay. From the text:
(§1) Methods for measuring binding affinities for interactions between small molecules and kinases including FLT3, c-KIT, ABL(T334I) [a.k.a. ABL(T315I)], VEGFR-2 (a.k.a. KDR), and EGFR are described in detail in U.S. application Ser. No. 10/873,835, which is incorporated by reference herein in its entirety. The components of the assays include human kinases expressed as fusions to T7 bacteriophage particles and immobilized ligands that bind to the ATP site of the kinases. […] If the test compound binds the kinase it competes with the immobilized ligand and prevents binding to the solid support. […] The results are read out by quantitating the amount of fusion protein bound to the solid support, which is accomplished by either traditional phage plaque assays or by quantitative PCR (qPCR) using the phage genome as a template. […] The concentration of test molecule that reduces the number of phage bound to the solid support by 50% is equal to the Kd for the interaction between the kinase and the test molecule. Typically, data are collected for twelve concentrations of test compound and, the resultant binding curve is fit to a non-cooperative binding isotherm to calculate Kd.
(§2) Described in the exemplary assays below is data from binding with varying kinases. […] The term “ND” represents non-determined values.

A further assay deals with T2, PDGFR-β (Homo sapiens, UniProt P09619).
T2 construct: made in house; host or cells: T7 bacteriophage display
T2 sequence (P09619 33-1106): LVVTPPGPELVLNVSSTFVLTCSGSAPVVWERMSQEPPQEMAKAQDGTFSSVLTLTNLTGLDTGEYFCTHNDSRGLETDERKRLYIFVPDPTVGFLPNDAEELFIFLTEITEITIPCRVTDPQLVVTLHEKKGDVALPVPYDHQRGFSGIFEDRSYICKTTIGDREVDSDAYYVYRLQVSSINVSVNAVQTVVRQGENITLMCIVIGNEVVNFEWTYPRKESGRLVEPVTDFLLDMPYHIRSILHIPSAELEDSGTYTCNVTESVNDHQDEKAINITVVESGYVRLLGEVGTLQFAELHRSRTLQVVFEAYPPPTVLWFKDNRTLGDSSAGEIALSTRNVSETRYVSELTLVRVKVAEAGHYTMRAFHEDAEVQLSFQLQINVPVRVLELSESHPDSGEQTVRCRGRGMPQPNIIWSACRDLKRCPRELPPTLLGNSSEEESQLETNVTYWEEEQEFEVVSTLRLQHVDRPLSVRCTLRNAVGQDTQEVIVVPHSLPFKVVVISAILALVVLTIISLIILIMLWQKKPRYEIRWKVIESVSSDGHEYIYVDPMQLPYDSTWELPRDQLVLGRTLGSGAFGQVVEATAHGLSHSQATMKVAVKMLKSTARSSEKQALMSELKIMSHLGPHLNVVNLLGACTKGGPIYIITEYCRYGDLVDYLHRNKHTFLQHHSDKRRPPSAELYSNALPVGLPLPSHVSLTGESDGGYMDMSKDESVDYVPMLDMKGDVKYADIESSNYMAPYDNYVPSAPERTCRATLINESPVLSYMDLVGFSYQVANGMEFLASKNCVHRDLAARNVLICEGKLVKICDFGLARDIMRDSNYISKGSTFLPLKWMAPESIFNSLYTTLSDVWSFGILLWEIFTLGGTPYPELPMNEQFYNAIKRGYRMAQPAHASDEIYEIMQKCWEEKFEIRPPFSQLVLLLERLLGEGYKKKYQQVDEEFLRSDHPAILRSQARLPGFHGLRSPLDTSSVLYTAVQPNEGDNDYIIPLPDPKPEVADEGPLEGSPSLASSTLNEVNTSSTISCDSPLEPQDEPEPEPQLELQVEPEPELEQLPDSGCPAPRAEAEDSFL
As to the kind of experiment: PDGFR-β (DKIN) phage-display competitive binding assay. How it is done:
as §2
Kd values for the interactions between PDGFR-β and candidate small molecule ligands were measured by a phage-display-based competitive binding assay that is described in detail in U.S. Ser. No. 10/406,797 filed 2 Apr. 2003 and incorporated herein by reference, Briefly, T7 phage displaying human PDGFR-β were incubated with an affinity matrix coated with known PDGFR-β inhibitor in the presence of various concentrations of the soluble competitor molecules. […] The Kd for the interaction between the soluble competitor molecule and PDGFR-β is equal to the concentration of soluble competitor molecule that causes a 50% reduction in the number of phage recovered in the eluate compared to a control sample lacking soluble competitor. Since this assay is generic, and any molecule can be used as a soluble competitor, we have determined Kd values for the interaction between PDGFR-β and several small molecules, including those shown below.

A further assay relates to MV4,11 cells. Nature of the assay: FLT3 assay using MV4,11 cells (cell proliferation, MTS). The assay is classed as cell-based. The following applies: Homo sapiens, MV 4,11 cells, 0.5% serum, read-out: (MV 4,11) Cell Proliferation Assay with 0.5% Serum IC50 (nM) “CS0001”. How it is done:
The ability of FLT3 kinase inhibitors to inhibit cellular proliferation was also examined. MV4:11 was a cell line derived from a patient with acute myelogenous leukemia. It expressed a mutant FLT3 protein that was constitutively active. […] Inhibition of FLT3 kinase activity prevented proliferation of these cells, and thus the MV4:11 cell line can be used a model for cellular activity of small molecule inhibitors of FLT3.
FLT3 assay using MV4,11 cells
MV4,11 cells were grown in an incubator @ 37° C. in 5% CO2 in Medium 2 (RPMI, 10% FBS, 4 mM glutamine, Penn/Strep). The cells were counted daily and the cell density was kept between 1e5 and 8e5 cells/ml.
Day One: Enough cells were harvested for experiments to be conducted in 50 ml conical tubes. The harvested cells were spun at 500 g for 5 min at 4° C., the supernatant was then aspirated and the cells were resuspended in the starting volume of 1×PBS. The cells were again spun at 500 g for 5 min at 4° C. and the supernatant again aspirated. […]
Day Two: The cells were counted and enough medium 3 was added to decrease density to 2e5 cells/ml. 50 ul (10,000 cells) was aliquoted into each well of a 96 well optical plate using multichannel pipetman. The compound plate was then set up by aliquoting 3 μl of negative control (DMSO) into column 1 of a 96 well 300 ul polypropylene plate, aliquoting 3 μl of positive control (10 mM AB20121) into column 12 of plate, and aliquoting 3 μl of appropriate compounds from serial dilutions into columns 2-11. To each well, 150 μl of Medium 3 was added and 50 μl of compound/medium mixture from compound plate into rows of optical plate in duplicate. The cells were then incubated at @ 37° C. in 5% CO2 for 3 days.
Day Five: MTS was thawed in a H2O bath. 20 μl of MTS was added to each well of optical plate and the cells were incubated @ 37° C. in 5% CO2 for 2 hours. The plate was then placed on a plate shaker for 30 seconds on high speed.

Assay [1] addresses T3, inactive form of KIT, which contains the autoinhibitory juxtamembrane domain (Homo sapiens, UniProt P10721).
T3 construct: made in house; host or cells: T7 bacteriophage display
Nature of the assay: KIT (DKIN) Binding Assay. The following applies: inactive form of KIT with autoinhibitory juxtamembrane domain.
Excerpt: as §1, §2

Another assay deals with T4, MARK2 (Homo sapiens, UniProt Q7KZI7).
T4 construct: made in house; host or cells: T7 bacteriophage display
T4 sequence (Q7KZI7 whole entry): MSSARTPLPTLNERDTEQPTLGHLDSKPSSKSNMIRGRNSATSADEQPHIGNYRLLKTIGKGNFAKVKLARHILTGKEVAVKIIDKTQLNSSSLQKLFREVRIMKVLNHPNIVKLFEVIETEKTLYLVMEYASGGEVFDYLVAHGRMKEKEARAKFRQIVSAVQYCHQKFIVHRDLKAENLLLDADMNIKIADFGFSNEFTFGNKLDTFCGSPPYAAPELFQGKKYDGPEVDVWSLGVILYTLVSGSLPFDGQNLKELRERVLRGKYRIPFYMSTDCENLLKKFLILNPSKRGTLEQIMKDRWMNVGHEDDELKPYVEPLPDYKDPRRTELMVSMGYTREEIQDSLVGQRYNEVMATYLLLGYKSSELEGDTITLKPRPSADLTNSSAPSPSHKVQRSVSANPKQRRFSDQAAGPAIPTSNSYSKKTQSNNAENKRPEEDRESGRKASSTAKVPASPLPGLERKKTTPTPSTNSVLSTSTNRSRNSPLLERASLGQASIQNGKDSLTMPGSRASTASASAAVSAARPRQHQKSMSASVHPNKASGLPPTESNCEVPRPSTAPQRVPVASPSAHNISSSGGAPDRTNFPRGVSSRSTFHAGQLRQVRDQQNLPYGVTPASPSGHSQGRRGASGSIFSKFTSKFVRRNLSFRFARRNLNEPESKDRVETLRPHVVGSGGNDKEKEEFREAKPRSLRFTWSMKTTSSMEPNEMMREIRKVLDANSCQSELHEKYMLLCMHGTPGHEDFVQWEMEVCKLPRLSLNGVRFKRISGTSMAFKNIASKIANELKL
As to the kind of experiment: MARK2 (SKIN) Binding Assay.
Excerpt: as §1, §2

A further assay concerns the target T5, TNIK (Homo sapiens, UniProt Q9UKE5).
T5 construct: made in house; host or cells: T7 bacteriophage display
Nature of the assay: TNIK (DKIN) Binding Assay.
Excerpt: as §1, §2

In another assay the target is T6, PLK 4 (Homo sapiens, UniProt O00444).
T6 construct: made in house; host or cells: T7 bacteriophage display
T6 sequence (O00444 1-970): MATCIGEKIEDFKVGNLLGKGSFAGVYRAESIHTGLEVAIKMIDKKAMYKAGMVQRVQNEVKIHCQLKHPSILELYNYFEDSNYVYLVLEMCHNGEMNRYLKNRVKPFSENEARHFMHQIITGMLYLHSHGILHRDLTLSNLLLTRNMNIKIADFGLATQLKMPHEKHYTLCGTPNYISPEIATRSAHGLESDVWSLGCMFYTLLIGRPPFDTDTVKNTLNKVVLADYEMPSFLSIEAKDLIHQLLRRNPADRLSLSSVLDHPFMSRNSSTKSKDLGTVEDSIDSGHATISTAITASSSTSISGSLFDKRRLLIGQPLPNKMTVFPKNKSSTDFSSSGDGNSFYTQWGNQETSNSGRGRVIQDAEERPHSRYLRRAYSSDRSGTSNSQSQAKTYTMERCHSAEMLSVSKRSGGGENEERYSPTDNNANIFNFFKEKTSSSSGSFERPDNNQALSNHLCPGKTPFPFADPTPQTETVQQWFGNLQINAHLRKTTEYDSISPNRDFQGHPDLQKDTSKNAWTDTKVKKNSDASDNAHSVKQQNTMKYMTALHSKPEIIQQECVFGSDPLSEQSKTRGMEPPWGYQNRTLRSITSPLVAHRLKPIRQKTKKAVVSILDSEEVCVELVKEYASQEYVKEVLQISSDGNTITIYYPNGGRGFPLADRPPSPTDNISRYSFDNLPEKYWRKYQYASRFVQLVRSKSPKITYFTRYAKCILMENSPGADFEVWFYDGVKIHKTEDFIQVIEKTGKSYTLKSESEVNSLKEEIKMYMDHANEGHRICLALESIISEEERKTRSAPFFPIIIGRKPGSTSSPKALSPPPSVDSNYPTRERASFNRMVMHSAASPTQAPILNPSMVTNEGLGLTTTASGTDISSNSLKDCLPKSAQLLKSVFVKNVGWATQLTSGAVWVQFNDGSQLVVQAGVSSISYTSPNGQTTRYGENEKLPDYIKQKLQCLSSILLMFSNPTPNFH
Nature of the assay: PLK 4 (SKIN) Binding Assay.
Excerpt: as §1, §2

For another assay, the target named is T7, ABL2 (Homo sapiens, UniProt P42684).
T7 construct: made in house; host or cells: T7 bacteriophage display
T7 sequence (P42684 whole entry): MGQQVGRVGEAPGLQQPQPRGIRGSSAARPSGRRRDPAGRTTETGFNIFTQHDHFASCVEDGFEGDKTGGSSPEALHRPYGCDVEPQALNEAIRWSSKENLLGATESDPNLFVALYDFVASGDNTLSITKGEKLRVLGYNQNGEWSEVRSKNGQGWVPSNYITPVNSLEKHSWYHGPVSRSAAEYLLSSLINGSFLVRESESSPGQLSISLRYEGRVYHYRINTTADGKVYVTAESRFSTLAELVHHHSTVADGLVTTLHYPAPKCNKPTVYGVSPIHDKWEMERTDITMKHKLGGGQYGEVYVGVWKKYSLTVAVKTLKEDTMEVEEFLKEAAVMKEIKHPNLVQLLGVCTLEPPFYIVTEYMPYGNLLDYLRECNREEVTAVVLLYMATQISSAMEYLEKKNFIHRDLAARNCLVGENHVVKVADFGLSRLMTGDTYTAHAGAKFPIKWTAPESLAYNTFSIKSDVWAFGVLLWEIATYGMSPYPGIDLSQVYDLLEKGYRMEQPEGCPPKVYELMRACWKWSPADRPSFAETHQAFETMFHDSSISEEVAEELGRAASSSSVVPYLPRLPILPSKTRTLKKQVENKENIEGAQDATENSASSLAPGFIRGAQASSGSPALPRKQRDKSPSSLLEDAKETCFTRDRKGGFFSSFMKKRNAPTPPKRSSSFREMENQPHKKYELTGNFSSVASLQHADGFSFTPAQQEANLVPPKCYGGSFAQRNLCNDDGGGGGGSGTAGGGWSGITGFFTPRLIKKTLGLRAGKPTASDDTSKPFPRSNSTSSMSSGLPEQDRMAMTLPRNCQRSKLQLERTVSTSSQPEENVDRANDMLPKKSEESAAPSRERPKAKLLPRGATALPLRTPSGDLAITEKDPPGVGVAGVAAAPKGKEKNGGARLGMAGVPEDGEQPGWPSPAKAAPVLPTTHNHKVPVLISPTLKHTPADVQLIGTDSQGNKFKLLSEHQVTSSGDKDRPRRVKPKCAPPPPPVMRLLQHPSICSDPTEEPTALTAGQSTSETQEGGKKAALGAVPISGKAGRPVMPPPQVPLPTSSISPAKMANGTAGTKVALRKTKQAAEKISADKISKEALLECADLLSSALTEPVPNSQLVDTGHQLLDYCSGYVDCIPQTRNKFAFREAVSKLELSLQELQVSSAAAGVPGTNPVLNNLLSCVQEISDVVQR
As to the kind of experiment: ABL2 (DKIN) binding assay.
Excerpt: as §1, §2

T3 sequence (P10721 546-976 limits assumed): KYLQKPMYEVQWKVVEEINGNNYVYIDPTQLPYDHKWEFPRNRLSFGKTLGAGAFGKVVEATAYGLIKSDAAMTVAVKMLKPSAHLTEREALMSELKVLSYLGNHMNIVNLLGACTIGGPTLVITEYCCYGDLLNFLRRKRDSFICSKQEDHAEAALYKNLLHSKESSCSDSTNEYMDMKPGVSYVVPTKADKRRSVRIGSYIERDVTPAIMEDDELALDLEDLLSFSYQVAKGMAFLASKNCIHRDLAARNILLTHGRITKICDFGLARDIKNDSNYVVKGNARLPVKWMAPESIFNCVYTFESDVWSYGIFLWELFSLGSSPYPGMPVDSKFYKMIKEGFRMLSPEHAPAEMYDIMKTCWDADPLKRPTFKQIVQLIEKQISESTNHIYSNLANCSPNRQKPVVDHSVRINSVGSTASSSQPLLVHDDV
T5 sequence (Q9UKE5 whole entry): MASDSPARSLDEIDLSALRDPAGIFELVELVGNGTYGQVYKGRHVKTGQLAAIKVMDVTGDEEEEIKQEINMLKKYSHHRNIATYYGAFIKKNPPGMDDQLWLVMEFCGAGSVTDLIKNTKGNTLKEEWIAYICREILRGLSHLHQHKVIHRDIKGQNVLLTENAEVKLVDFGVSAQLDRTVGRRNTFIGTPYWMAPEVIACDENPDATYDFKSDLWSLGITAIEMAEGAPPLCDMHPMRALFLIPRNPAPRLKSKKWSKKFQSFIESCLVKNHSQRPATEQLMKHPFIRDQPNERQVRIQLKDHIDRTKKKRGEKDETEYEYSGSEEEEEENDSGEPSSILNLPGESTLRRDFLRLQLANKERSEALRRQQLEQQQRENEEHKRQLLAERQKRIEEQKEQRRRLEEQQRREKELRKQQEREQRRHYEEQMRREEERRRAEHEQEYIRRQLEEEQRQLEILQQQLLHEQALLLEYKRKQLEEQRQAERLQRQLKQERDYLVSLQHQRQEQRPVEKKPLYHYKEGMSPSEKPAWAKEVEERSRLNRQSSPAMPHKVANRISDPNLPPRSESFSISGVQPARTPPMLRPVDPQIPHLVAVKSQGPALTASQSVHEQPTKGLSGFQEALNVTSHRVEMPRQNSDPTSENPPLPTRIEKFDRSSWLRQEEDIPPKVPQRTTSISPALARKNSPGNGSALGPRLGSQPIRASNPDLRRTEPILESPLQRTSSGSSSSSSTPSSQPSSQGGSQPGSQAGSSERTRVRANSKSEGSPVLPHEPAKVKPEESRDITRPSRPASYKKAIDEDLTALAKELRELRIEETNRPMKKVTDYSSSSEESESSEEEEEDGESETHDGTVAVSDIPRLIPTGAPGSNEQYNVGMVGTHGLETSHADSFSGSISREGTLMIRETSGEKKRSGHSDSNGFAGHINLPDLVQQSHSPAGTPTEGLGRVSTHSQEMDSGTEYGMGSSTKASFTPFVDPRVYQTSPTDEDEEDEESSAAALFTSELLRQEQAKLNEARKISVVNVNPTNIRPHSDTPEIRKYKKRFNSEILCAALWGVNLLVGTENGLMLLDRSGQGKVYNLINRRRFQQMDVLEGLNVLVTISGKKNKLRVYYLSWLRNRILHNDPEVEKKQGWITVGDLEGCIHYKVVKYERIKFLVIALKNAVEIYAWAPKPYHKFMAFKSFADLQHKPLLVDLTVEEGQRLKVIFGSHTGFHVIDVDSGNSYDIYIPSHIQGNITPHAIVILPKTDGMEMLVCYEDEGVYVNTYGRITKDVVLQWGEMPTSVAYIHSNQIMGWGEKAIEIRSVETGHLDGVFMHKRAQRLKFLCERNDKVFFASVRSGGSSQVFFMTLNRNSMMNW

For `COc1ccc(-c2cc3c(Sc4ccc(F)c(Cl)c4)ncnc3[nH]2)cc1` [Compound J37], the Kd at FLT3 and on PDGFR-β was 0.1 to 1 µM throughout. Further, the IC50 with MV4,11 cells was in the range of 100 to 1000 nM.

Consider `COc1ccc(-c2cc3c(Sc4ccccc4)ncnc3[nH]2)cc1` [Compound J16], for which the Kd (in general, the constant that tells how readily two partners part at equilibrium) was in the range of 0.1 to 1 µM at FLT3, 0.1 to 1 µM at PDGFR-β and 1 to 10 µM in assay [1]. Also, the IC50 with MV4,11 cells was below 100 nM.

`COc1ccc(-c2cc3c(Sc4cc(C)cc(C)c4)ncnc3[nH]2)cc1` [Compound J5]: the Kd at FLT3 was above 10 µM. Also, the IC50 in the assay on MV4,11 cells was below 100 nM.

In the case of `Oc1ccc(-c2cc3c(Sc4cccc(Cl)c4)ncnc3[nH]2)cc1` [Compound L2], the Kd on MARK2 is above 10 µM; on TNIK, below 0.1 µM; on PLK 4 it was above 10 µM; on ABL2, 1 to 10 µM.

In the case of `Clc1ccc(Sc2ncnc3c2[nH]c2ccccc23)cc1Cl` [Compound K5], the IC50 in the assay on MV4,11 cells was above 10000 nM.
